Measurements taken from PMC4412257, “2′,6′-Dimethylphenylalanine: A Useful Aromatic Amino Acid Surrogate for Tyr or Phe Residue in Opioid Peptides” (International Journal of Medicinal Chemistry, 2012).
Read-outs that look alike come from different tables or passages of the source.

Columns and labels:
[1] = test system: μ-opioid receptor; assay: μ-opioid receptor binding, brain homogenate, versus [3H]DAMGO; parameters: species or system rat; conditions: ratio of Ki values
Procedure: (§1) The receptor-binding affinities of synthetic analogs were determined using rat brain, as previously reported. […] The GPI tissue contains predominantly μ-receptors, while MVD tissue contains δ-receptors. […] In contrast, 11 was devoid of activity in both assays, as expected from the binding data. […] This analog turned out to be a potent μ-antagonist and a weak δ-antagonist. […] The results of 13 are in line with observations that Dmt-D-Phe-NH2 and its C-terminally extended analog are μ-receptor antagonists.
Two methyl groups on Dmp^4 may interfere with the receptor interaction due to a reduction in conformational flexibility and/or enhanced lipophilicity. To further examine the usefulness of Dmp-containing DYN peptides as κ-opioid receptor ligands, the in vitro bioactivity of DYN peptides was determined using the GPI assay (Table 5).

[2] = test system: GPI (μ): guinea pig ileum, predominantly μ-receptors; conditions: cited from earlier work; for Ke of CTAP against the peptide, GPI: antagonist CTAP (μ), GPI assay
[3] = test system: GPI (μ): guinea pig ileum, predominantly μ-receptors; assay: isolated guinea pig ileum (GPI) assay; format: cell-based; conditions: ratio of IC50 values
Procedure: as §1

[4] = molecular target: δ-opioid receptor; conditions: versus [3H]DT, read-out: Receptor binding affinity, Ki ± S.E., δ, cited from earlier work
[5] = test system: mice; parameters: method as in PMID 12657261; conditions: formalin test in mice, subcutaneous injection, cited from earlier work
[6] = molecular target: MVD (δ): mouse vas deferens, δ-receptors; conditions: cited from earlier work; for Ke of CTAP against the peptide, MVD: antagonist CTAP (μ); for Ke of CTAP against the peptide, MVD / Ke of N,N(Me)2Dmt-Tic-OH against the peptide, MVD: MVD assay; for Ke of N,N(Me)2Dmt-Tic-OH against the peptide, MVD: antagonist N,N(Me)2Dmt-Tic-OH (δ)
[7] = molecular target: μ-opioid receptor; conditions: versus [3H]DAMGO, read-out: Receptor binding affinity, Ki ± S.E., μ, cited from earlier work
[8] = test system: δ-opioid receptor; assay: δ-opioid receptor binding, brain homogenate, versus [3H]DT; parameters: species or system rat; conditions: Table 1; ratio of Ki values
Procedure: The receptor-binding affinities of synthetic analogs were determined using rat brain, as previously reported [45].

[9] = test system: MVD (δ): mouse vas deferens, δ-receptors; assay: isolated mouse vas deferens (MVD) assay; format: cell-based; conditions: Table 1; ratio of IC50 values
Procedure: as §1

Substance	δ/μ ([1]; Table 1)	IC50 ([2]; Table 1)	MVD/GPI ([3]; Table 1)	Ki ([4]; Table 1, rat brain)	IC50 ([6]; Table 1)	Ki ([7]; Table 1, rat brain)	further results
[Dmp^1]YRFB [compound 24]							δ/μ ([1]; Table 6): 41284; IC50 ([2]; Table 6): 9.88 ± 1.04 nM; Ke of CTAP against the peptide, GPI [2]: 25.1 nM; MVD/GPI ([3]; Table 6): 19; Ki ([4]; Table 6): 2570 ± 947 nM; ED50, First phase [5]: 1946 nmol/kg; ED50, Second phase [5]: 1529 nmol/kg; IC50 ([6]; Table 6): 188 ± 52 nM; Ke of CTAP against the peptide, MVD [6]: 13.4 nM; Ke of N,N(Me)2Dmt-Tic-OH against the peptide, MVD [6]: >1000 nM; Ki ([7]; Table 6): 0.0623 ± 0.014 nM
[Dmp^3]DM [compound 18]	84630	1.21 ± 0.23 nM	3.8	45.7 ± 11.8 nM	4.62 ± 0.82 nM		
[Dmp^3]DT [compound 20]		6700 ± 992 nM		0.00105 ± 0.00043 nM	0.022 ± 0.003 nM	1100 ± 111 nM	
[Dmp^3]EM2 [compound 14]	34967	0.378 ± 0.104 nM	3.68	1060 ± 336 nM		0.0304 ± 0.0208 nM	
[Dmp^3]YRFB [compound 22]	15543	1.67 ± 0.24 nM	16.7	544 ± 143 nM	27.9 ± 5 nM	0.035 ± 0.0167 nM	Ke of CTAP against the peptide, GPI [2]: 22.7 nM; ED50, First phase [5]: 98.6 nmol/kg; ED50, Second phase [5]: 113 nmol/kg; Ke of CTAP against the peptide, MVD [6]: 11.4 nM; Ke of N,N(Me)2Dmt-Tic-OH against the peptide, MVD [6]: >1000 nM
[Dmp^4]EM2 [compound 16]	578	196 ± 40 nM	1.63	7620 ± 2570 nM	320 ± 55 nM	13.2 ± 1.9 nM	
[Dmp^4]ENK [compound 10]		808 ± 101 nM		17.7 ± 4.2 nM	624 ± 103 nM	1.25 ± 0.29 nM	μ/δ [8]: 0.07; GPI/MVD [9]: 1.29
[Dmt^1, D-Dmp^4]ENK [compound 13]		> 10000 nM		40.9 ± 11.5 nM	> 10000 nM	5.61 ± 0.59 nM	pA2 (μ antagonism) ([2]; against EM2 as a μ agonist in the GPI assay): 6.90; μ/δ [8]: 0.14; pA2 (δ antagonism) ([6]; against DT as a δ agonist in the MVD assay): 5.57
